Source: PMC10857906, “PROTAC-mediated NR4A1 degradation as a novel strategy for cancer immunotherapy” (The Journal of Experimental Medicine, 2024)

Tests used:
[1] = test system: immune cells in the TME, spleen and blood; test: Immune profile by flow cytometry in B16F10 tumor-bearing mice; assay type: in vivo, mouse
Method: For syngeneic tumor models, 5 × 10^5 cells MC38, Yumm1.7, and Yummer1.7, 1 × 10^5 cells of B16F10 were resuspended in PBS and implanted into 7–9-wk-old mice subcutaneously. For the tumor inhibition experiment, mice were treated with 1.8 mg/kg NR-V04 or 0.75 mg/kg celastrol by i.p. injection twice weekly. For the immune profile experiment, once tumors reached 0.5 cm in diameter, mice were treated with 1.8 mg/kg NR-V04 by i.p. injection twice weekly. For the toxicity experiment, male and female non-tumor-bearing mice were treated with 2 mg/kg NR-V04 for two doses in the first week and 5 mg/kg for another two doses in the second week. Blood samples were taken from the submandibular (facial) vein before each treatment and 42 days later for hematological analysis, and body weight was measured twice per week up to day 42. Mice were euthanized in accordance with the IACUC protocol once the largest tumors reached 2 cm in diameter, and tissues were collected for further analysis.
Mouse tumors were excised and ∼200 mg of tumor tissue was enzymatically and mechanically digested using the mouse Tumor Dissociation Kit (Miltenyi Biotec) to obtain a single-cell suspension. Human tumor samples and sections were enzymatically and mechanically digested using the human Tumor Dissociation Kit (Miltenyi Biotec) to obtain single-cell suspension. Red blood cells were lysed using ACK lysis buffer and mononuclear cells were isolated by density gradient using SepMate Tubes (StemCell Technologies) and Lymphoprep density gradient media (StemCell Technologies). Mouse cells were then washed and incubated with combinations of the following antibodies: anti-mouse CD62L-BV785 (clone MEL-14), anti-mouse MHCII I-A/I-E-BB515 (Clone 2G9, 1:400; BD Biosciences), anti-mouse CD11B-PEdazzle 594 (clone M1/70, 1:200), anti-mouse CD45-AF532 (clone 30F.11), anti-mouse CD3-APC/Cy7 (clone 17A2), anti-mouse CD8-BV510 (clone 53-6.7), anti-mouse CD4-BV605 (clone GK1.5), anti-mouse NK1.1-AF700 (clone PK136), anti-mouse/human CD45R/B220-BV 570 (clone RA3-6B2), anti-mouse CD138-BV711 (clone 281-2), […], anti-mouse IgD-PE-Cy7 (clone 11-26c.2a), anti-mouse Ly6G-FITC (clone IA8), anti-mouse Ly6C-BV711 (clone HK1.4), anti-mouse CD38-PerCP/Cy 5.5 (clone 90) anti-mouse IgM-AF488 (clone RMM-1), anti-mouse CD25-PE-Cy5 (clone PC61) plus zombie red (cell viability; Thermo Fisher Scientific), and mouse FcR blocker (anti-mouse CD16/CD32, clone 2.4G2; BD Biosciences). After surface staining, cells were fixed and permeabilized using the FOXP3/Transcription Factor Staining Buffer Set (eBioscience). Cells were stained with a combination of the following antibodies: anti-mouse FOXP3-efluor 450 (clone FJK-16S, 1:50; eBioscience), anti-mouse Granzyme B-BV421 (clone GB11), and anti-mouse NR4A1-PE (clone 12.14; eBioscience). Human cells were stained with a combination of the following antibodies: anti-human CD45-BV510 (clone H130), anti-human CD3-AF700 (clone HIT5a), anti-human CD4-BV421 (clone OKT4), anti-human CD8-BV711 (clone RPA-T8), anti-human CD127-BV605 (clone A019DS), anti-human CD25-PE-Cy7 (clone MA251) plus FVD-eFluor-780 (eBioscience), and human FcR blocking reagent (StemCell Technologies). Cells were washed then fixed and permeabilized using the eBioscience FOXP3/Transcription Factor Staining Buffer Set. […] Flow cytometry was performed on a three laser Cytek Aurora Cytometer (Cytek Biosciences) and analyzed using FlowJo software (BD Biosciences). […]

NR4A3 = target: T1, NR4A3 (Homo sapiens, UniProt Q92570); test: NR4A3 protein level after treatment (immunoblotting); assay type: cell-based
T1 construct: endogenous in cells
Method: Samples were lysed using radioimmunoprecipitation assay buffer (RIPA) lysis buffer (150 mM NaCl, 5 mM EDTA, 50 mM Tris pH 8.0, 0.5% sodium deoxycholate, 1% NP-40, 0.1% SDS) supplemented with 1 mM dithiothreitol and protease inhibitors. The lysates were separated by SDS-PAGE and analyzed using standard western blotting procedures ([Khan et al., 2019]). Antibodies: human NR4A1 (ab153914, 1:1,000; Abcam), mouse NR4A1 (14-5965-82, 1:1,000; Invitrogen), NR4A2 (AV38753, 1:1,000; Sigma-Aldrich), NR4A3 (TA804893, 1: 1,000; Thermo Fisher Scientific), VHL (68547, 1:1,000; Cell Signaling), β-actin (13E5, 1:5,000; Cell Signaling), β-tubulin (9F3, 1: 5,000; Cell Signaling), and GAPDH (D16H11, 1: 5,000; Cell Signaling) were employed for protein detection.

NR4A1 = target: T2, NR4A1 (Homo sapiens, UniProt P22736); test: NR4A1 degradation in WM164 and M229 human melanoma cells (immunoblotting); assay type: cell-based; details: 16 h
T2 construct: NR-V04 effectively promoted the degradation of NR4A1 in two human melanoma cell lines within 16 h; endogenous in cells; host or cells: CHL-1, A375, WM164, M229 human melanoma cells
Method: Human melanoma cell lines: A375 and CHL-1 (gifts from Dr. D. Zhou, the University of Texas Health Science Center, San Antonio, TX, USA) were cultured in Dulbecco’s Modified Eagles’ Medium (DMEM, D5796; Sigma-Aldrich), WM164 and M229 (gifts from Dr. K.S.M. Smalley’s lab) were cultured in RPMI-1640 (R8758; Sigma-Aldrich). Mouse melanoma cell lines: B16F10 (CRL-6475, ATCC) was cultured in DMEM, SW1 and SM1 (gift from Dr. K.S.M. Smalley, Moffitt Cancer Center, Tampa, FL, USA) were cultured in RPMI. Human epithelial kidney cell lines: HEK293T (293T, CRL-3216; ATCC) and Vhl-KO-293T (gift from Dr. D. Zhou, the University of Texas Health Science Center, San Antonio, TX, USA) were cultured in DMEM. Mouse colon cancer cell lines: MC38 (ENH204-FP; Kerafast Inc.) was cultured in DMEM supplemented with 1 mM glutamine, […] non-essential amino acids (11140050; Thermo Fisher Scientific), 1 mM sodium pyruvate (11360070; Thermo Fisher Scientific), and 10 mM HEPES (15630080; Thermo Fisher Scientific). […]
Samples were lysed using radioimmunoprecipitation assay buffer (RIPA) lysis buffer (150 mM NaCl, 5 mM EDTA, 50 mM Tris pH 8.0, 0.5% sodium deoxycholate, 1% NP-40, 0.1% SDS) supplemented with 1 mM dithiothreitol and protease inhibitors. The lysates were separated by SDS-PAGE and analyzed using standard western blotting procedures ([Khan et al., 2019]). […]

T2 sequence (P22736 whole entry): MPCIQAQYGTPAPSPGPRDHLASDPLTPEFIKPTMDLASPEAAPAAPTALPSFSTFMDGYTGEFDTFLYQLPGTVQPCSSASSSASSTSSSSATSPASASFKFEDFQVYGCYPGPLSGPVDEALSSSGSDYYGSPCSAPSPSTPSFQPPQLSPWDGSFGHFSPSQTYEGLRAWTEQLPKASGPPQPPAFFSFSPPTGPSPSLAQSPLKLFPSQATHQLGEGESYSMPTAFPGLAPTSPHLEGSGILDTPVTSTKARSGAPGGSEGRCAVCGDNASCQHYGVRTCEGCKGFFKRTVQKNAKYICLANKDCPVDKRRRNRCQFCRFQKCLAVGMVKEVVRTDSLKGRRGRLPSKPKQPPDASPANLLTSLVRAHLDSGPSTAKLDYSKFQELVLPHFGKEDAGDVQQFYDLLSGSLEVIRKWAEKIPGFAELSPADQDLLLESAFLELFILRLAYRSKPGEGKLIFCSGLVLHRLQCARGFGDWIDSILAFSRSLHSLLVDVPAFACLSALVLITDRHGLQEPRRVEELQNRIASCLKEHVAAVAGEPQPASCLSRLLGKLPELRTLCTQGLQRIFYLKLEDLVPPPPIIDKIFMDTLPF
T1 sequence (Q92570 whole entry): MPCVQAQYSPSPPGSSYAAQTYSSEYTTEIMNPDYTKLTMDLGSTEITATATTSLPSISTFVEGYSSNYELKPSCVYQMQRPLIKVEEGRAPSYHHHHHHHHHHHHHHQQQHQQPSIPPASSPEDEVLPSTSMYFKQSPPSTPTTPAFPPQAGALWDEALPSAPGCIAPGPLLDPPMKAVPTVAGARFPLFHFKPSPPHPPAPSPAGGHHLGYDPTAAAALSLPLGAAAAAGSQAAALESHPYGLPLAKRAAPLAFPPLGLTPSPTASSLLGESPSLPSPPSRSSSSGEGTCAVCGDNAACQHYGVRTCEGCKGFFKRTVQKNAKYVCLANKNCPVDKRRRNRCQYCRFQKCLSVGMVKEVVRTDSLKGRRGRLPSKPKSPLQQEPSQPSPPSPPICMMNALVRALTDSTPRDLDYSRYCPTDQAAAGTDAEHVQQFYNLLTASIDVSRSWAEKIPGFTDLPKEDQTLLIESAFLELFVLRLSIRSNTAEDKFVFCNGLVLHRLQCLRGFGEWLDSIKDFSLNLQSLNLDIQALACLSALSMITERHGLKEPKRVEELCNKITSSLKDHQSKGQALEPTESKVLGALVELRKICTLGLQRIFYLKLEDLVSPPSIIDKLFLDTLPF

SMILES: CC1=C(O)C(=O)C=C2C1=CC=C1[C@@]2(C)CC[C@@]2(C)[C@@H]3C[C@](C)(C(=O)NCCOCCOCCOCCOCC(=O)N[C@H](C(=O)N4C[C@H](O)C[C@H]4C(=O)N[C@@H](C)c4ccc(-c5scnc5C)cc4)C(C)(C)C)CC[C@]3(C)CC[C@]12C [NR-V04]
- B cells in the spleen and blood ([1]; B16F10 model, 2 doses of 1.8 mg/kg i.p.): no significant change
- CD8^+ Texh cells in vivo ([1]; B16F10 tumors): did not observe a significant decrease in CD8^+ Texh cells
- TI-B cells (B220^+ cells) ([1]; B16F10 tumors, 2 doses of 1.8 mg/kg i.p. on day 1 and day 4, collected day 7, vehicle 14.7%): 30.1%
- effector memory CD8 T cells (CD44^+CD62L^− Tem) ([1]; spleen and tumors, B16F10 model, 2 doses of 1.8 mg/kg i.p.): increase in effector memory CD8 T cells
- monocytic myeloid-derived suppressor cells (m-MDSC, CD11B^+Ly6C^+) ([1]; tumors and blood, B16F10 model, 2 doses of 1.8 mg/kg i.p.): decrease in monocytic myeloid-derived suppressor cells
- NR4A3 protein level (selectivity in the NR4A family) (NR4A3): sparing NR4A2 and NR4A3
- NR4A1 protein level (NR4A1; M229 human melanoma cells): reduced NR4A1 protein level
- NR4A1 protein level (NR4A1; WM164 human melanoma cells): reduced NR4A1 protein level
